One assay deals with QGRFa.R070 (R70, GPR70). Nature of the assay: GPCR deorphanization dose-response assay (HEK293, G5A luminescence). The format is cell-based, Nematostella vectensis. The note with it: drc fit. How it is done: (§1) To experimentally identify Nematostella neuropeptide GPCRs, we tested our selection of 161 N. vectensis GPCRs in a pharmacological assay for activation by peptides from our peptide library (Figure 3A, Supplementary files 3 and 8). We expressed the candidate GPCRs in mammalian cells, together with a promiscuous Gqi protein and a luminescent G5A reporter (Figure 3A, Supplementary file 7). The peptides were separated into different mixes (Supplementary file 3), which were then tested on each GPCR (Supplementary file 4). Receptor-mix combinations that gave a positive signal were further resolved by testing the individual peptides of the mix to identify the activating ligand (Supplementary file 4). […]
(§2) A detailed step-by-step protocol has been published in [Thiel et al., 2023]. […] For each well, 10 µl OptiMEM (without FBS), 70 ng of GPCR containing plasmid, 70 ng of Gqi5/9 plasmid, 10–20 ng of G5A plasmid (to increase luminescence values of our HEK293 cell line), and 0.45–0.48 µl T5000/PEI were mixed and incubated for 20 min at room temperature. […] Readings were performed with a FlexStation 3 Multi-mode Microplate reader (Molecular Devices), for a period of 60 s per well, ligand injection after 15–18 s, and the whole plate was read with the Flex option. […] The readout data for the final dose-response curves is provided in Supplementary file 9 and as .csv files in the repository in the data folder. […]

The subject of assay [1] is QITRFa.R196 (R196, GPR196). Described as above. The format is cell-based, Nematostella vectensis. The note with it: drc fit. The method, then: as §1, §2

As to “pyrQITRFamide [synthetic N. vectensis RFamide neuropeptide pyrQITRFamide]”, the “Slope of the dose-response curve” value in the assay on QGRFa.R070 (R70, GPR70) is listed as -1.343; in assay [1] it was -0.6635.
